The experiment relates to 435261-313-R-J1-PDC complex spheroid viability. Kind of experiment: Anticancer human tumor 435261-313-R-J1-PDC patient-derived colon adenocarcinoma cell line growth inhibition [GQUAD]. The settings on record: for viability, T/C: stronger effect = lower value. The text has this:
DNA G-quadruplex Stabilizer Agents in Combinations in Complex Spheroids
A high-throughput screen of multi-cell type tumor spheroids was designed to identify active combinations of DNA G-quadruplex stabilizer agents and targeted small molecules. Complex spheroids include a stromal component modeled by human endothelial cells (HUVEC) and fibroblasts modeled by human mesenchymal stem cells (MSCs). The concentration ranges selected for each drug and investigational agent were based upon clinically achievable concentrations if the clinical Cmax of the agent was known.
Compounds. The drugs and investigational agents: pidnarulex (CX-5461; NSC782164), APTO-253 (NSC789042), BRACO-19 (NSC847499), peposertib (NSC802822), ceralasertib (NSC780249), elimusertib (NSC800525), camonsertib (NSC841442), AZD-1390 (NSC803789), olaparib (NSC753686), talazoparib (NSC767125), ART-558 (NSC835418), sotorasib (NSC818433), MRTX-1133 (NSC836407), SN-38 (NSC673596), topotecan (NSC609699), etoposide (NSC141540), doxorubicin (NSC123127), gemcitabine (NSC613327), 5-fluorouracil (NSC19893), paclitaxel (NSC125973), vemurafenib (NSC761431), panobinostat (NSC761190), R-306465 (JNJ-16241199; NSC773264), adavosertib (NSC754352), TP-3654 (NSC805149), carboplatin (NSC241240), KSQ-4279 (NSC840948), and staurosporine (NSC755774) were obtained from the National Cancer Institute (NCI) Developmental Therapeutics Program Chemical Repository (34). The FDA-approved anticancer drug set is available from the NCI Developmental Therapeutics Program. […] The stock solutions were prepared in dimethyl sulfoxide (DMSO, Sigma-Aldrich, St. Louis, MO, cat. D2650) at 800-fold the tested concentration and stored at -70 degrees C prior to their use. All drugs and investigational agents were tested over a range starting from a high concentration at or near the clinical Cmax and decreasing in half-log increments. If the clinical Cmax for an agent had not been determined, the highest concentration tested was 10 microM.
2.3 Cell Culture. All cells were maintained in an incubator at 37 degrees C and 5% CO2 with 95% humidity. The PDC lines were cultured according to standard operating procedures established by the NCI PDMR. All PDCs were thawed and cultured in Matrigel-coated flasks prepared with a working solution of 1X Ham's F-12 nutrient mix, without supplementation (Invitrogen, cat. 11765054), 100 U/mL penicillin-streptomycin (Invitrogen, cat. 15140122), and 2.5% Matrigel (Corning Inc., cat. 354248) for the first three passages. The 857933-349-R-J2-PDC line was cultured in 6C/Colon 1B media, which includes advanced DMEM/F-12 (Thermo Fisher Scientific, cat. 12634028), 10 mM HEPES (Thermo Fisher Scientific, cat. 15630080), 1X GlutaMAX supplement (Thermo Fisher Scientific, cat. 35050061), 0.1 mg/mL primocin (InvivoGen, cat. ant-pm-2), 10% defined fetal bovine serum, heat inactivated (HyClone Laboratories Inc., cat. SH30070.03HI), 50% L-WRN conditioned media (ATCC, cat. CRL-3276), 1.25 mM N-Acetyl-L-cysteine (Sigma-Aldrich, cat. A9165), 10 mM nicotinamide (Sigma-Aldrich, cat. N0636), 1X B-27 supplement (Thermo Fisher Scientific, cat. 17504044), 1X N-2 supplement (Thermo Fisher Scientific, cat. 17502048), 10 microM Y-27632 dihydrochloride (Tocris Bioscience, cat. 1254), and 50 ng/mL human EGF recombinant protein (Thermo Fisher Scientific, cat. PHG0311). The 485176-168-R4-J1-PDC line was cultured in Panc media, which includes all 6C/Colon 1B media components plus 100 ng/mL human FGF-10 (Thermo Fisher Scientific, cat. 100-26), 500 nM SB-431542 (Selleckchem, cat. S1067), and gastrin (Tocris, cat. 3006).
[…]

The structures appear in SMILES notation. “And” between values parts separate entries of the source, which are not always exact repeats. Equal values may be shown once. Bounds are passed on as bounds.
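Also: spheroids exposed to the agents for seven days before readout.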
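For viability, T/C in this document: percent of vehicle control viability with DMSO wells as 100%.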

As for `C=CCn1c(=O)c2cnc(Nc3ccc(N4CCN(C)CC4)cc3)nc2n1-c1cccc(C(C)(C)O)n1`, the viability, T/C (usually the result in the treated group divided by that in the control group, in per cent) reads like this: (compound 0.0316 µM) 86.6% and 93%; (compound 0.1 µM) 114% and 97.5%; (compound 0.316 µM) 94.4% and 87.1%; (compound 1 µM) 74.3% and 105%; (compound 3.16 µM) 70.5% and 77.6%; (compound 10 µM) 57.6% and 47%. The IC50 (as a rule, the concentration that gives 50% inhibition) (curve of compound) is > 10000 nM and 8920 nM.

`CC(C)(O)C1CCC(Nc2ccc3ncc(-c4cccc(C(F)(F)F)c4)n3n2)CC1` (configuration not stated): the viability, T/C runs as follows: (compound 0.0316 µM) 60.2%; (compound 0.1 µM) 82%; (compound 0.316 µM) 82.5%; (compound 1 µM) 36.3%; (compound 3.16 µM) 9.61%; (compound 10 µM) 12.9%. The half-inhibitory concentration (IC50) (curve of compound) worked out at 665 nM.

As for `CN(C)c1ccc(Nc2c3ccc(NC(=O)CCN4CCCC4)cc3nc3cc(NC(=O)CCN4CCCC4)ccc23)cc1`, the viability, T/C is, setting by setting: (compound 3.16 µM) 63.9% [middle of 11 runs]; (compound 10 µM) 41.3% [middle of 11 runs].

With `COc1ncnc(C2CC2)c1-c1ncc2cnn(Cc3ccc(-c4nc(C(F)(F)F)cn4C(C)C)cc3)c2n1`, the viability, T/C was 89.1% and 87.3% (compound 0.0316 µM); 75.2% and 70.5% (compound 0.1 µM); 85.4% and 92.4% (compound 0.316 µM); 113% and 83% (compound 1 µM); 96.8% and 88.3% (compound 3.16 µM); 84.5% and 65.8% (compound 10 µM). Moreover, under “curve of compound”, the IC50 is > 10000 nM.

For `O=C(NO)c1cnc(N2CCN(S(=O)(=O)c3ccc4ccccc4c3)CC2)nc1`, the viability, T/C (compound 0.0316 µM) was 97.4%; the viability, T/C (compound 0.1 µM) was 68.3%; the viability, T/C (compound 0.316 µM) is 52.4%; the viability, T/C (compound 1 µM) is 35.2%; the viability, T/C (compound 3.16 µM) is 0.38%; the viability, T/C (compound 10 µM) was 0.16%. For the same compound, the IC50 (curve of compound) turned out to be 318 nM.

As for `CC1COCCN1c1cc(C2(O)CC3CCC(C2)O3)c2cnn(-c3ccn[nH]3)c2n1` (configuration not stated) + CN(C)c1ccc(Nc2c3ccc(NC(=O)CCN4CCCC4)cc3nc3cc(NC(=O)CCN4CCCC4)ccc23)cc1, the IC50 reads like this: (curve of first compound, second compound 0.0316 µM) 193 nM; (curve of first compound, second compound 0.1 µM) 316 nM; (curve of first compound, second compound 0.316 µM) 225 nM; (curve of first compound, second compound 1 µM) 257 nM; (curve of first compound, second compound 3.16 µM) < 31.6 nM; (curve of first compound, second compound 10 µM) < 31.6 nM. Also, the viability, T/C was 63% (second compound 0.0316 µM, first compound 0.0316 µM); 58.1% (second compound 0.0316 µM, first compound 0.1 µM); 45.1% (second compound 0.0316 µM, first compound 0.316 µM); 27.4% (second compound 0.0316 µM, first compound 1 µM); 23.2% (second compound 0.0316 µM, first compound 3.16 µM); 12% (second compound 0.0316 µM, first compound 10 µM). Also, the viability, T/C (second compound 0.1 µM, first compound 0.0316 µM) was 71.3%; the viability, T/C (second compound 0.1 µM, first compound 0.1 µM) was 82.8%; the viability, T/C (second compound 0.1 µM, first compound 0.316 µM) is 47.3%; the viability, T/C (second compound 0.1 µM, first compound 1 µM) was 26.8%; the viability, T/C (second compound 0.1 µM, first compound 3.16 µM) is 21.1%; the viability, T/C (second compound 0.1 µM, first compound 10 µM) is 10.8%. Besides, the viability, T/C (second compound 0.316 µM, first compound 0.0316 µM) is 75.1%; the viability, T/C (second compound 0.316 µM, first compound 0.1 µM) is 61.7%; the viability, T/C (second compound 0.316 µM, first compound 0.316 µM) was 45.7%; the viability, T/C (second compound 0.316 µM, first compound 1 µM) was 28.9%; the viability, T/C (second compound 0.316 µM, first compound 3.16 µM) was 25%; the viability, T/C (second compound 0.316 µM, first compound 10 µM) is 11.6%. For the same compound, the viability, T/C was 82.7% (second compound 1 µM, first compound 0.0316 µM); 64.5% (second compound 1 µM, first compound 0.1 µM); 48% (second compound 1 µM, first compound 0.316 µM); 28.3% (second compound 1 µM, first compound 1 µM); 21.1% (second compound 1 µM, first compound 3.16 µM); 7.4% (second compound 1 µM, first compound 10 µM). Moreover, the viability, T/C is 48.6% (second compound 3.16 µM, first compound 0.0316 µM); 44.3% (second compound 3.16 µM, first compound 0.1 µM); 31.9% (second compound 3.16 µM, first compound 0.316 µM); 13.3% (second compound 3.16 µM, first compound 1 µM); 9.48% (second compound 3.16 µM, first compound 3.16 µM); 3.11% (second compound 3.16 µM, first compound 10 µM). In addition, the viability, T/C (second compound 10 µM, first compound 0.0316 µM) was 26.9%; the viability, T/C (second compound 10 µM, first compound 0.1 µM) is 18.5%; the viability, T/C (second compound 10 µM, first compound 0.316 µM) was 17%; the viability, T/C (second compound 10 µM, first compound 1 µM) is 7.23%; the viability, T/C (second compound 10 µM, first compound 3.16 µM) was 3.13%; the viability, T/C (second compound 10 µM, first compound 10 µM) was 1.2%.
